The source of these data is article PMC7050258, “Inhibition of MGAT2 modulates fat‐induced gut peptide release and fat intake in normal mice and ameliorates obesity and diabetes in ob/ob mice fed on a high‐fat diet” (FEBS Open Bio, 2020).

A word on the IC50: it is the point on the concentration scale where inhibition reaches its midpoint.

The target of one experiment is human MGAT2 (Homo sapiens, UniProt Q3SYC2). Put plainly: in vitro inhibitory activity against MGAT2 (human). The experiment is classed as biochemical. As for the experimental part: (§1) CpdB, CpdA, and pioglitazone were synthesized at Takeda Pharmaceutical Co., Ltd. (Tokyo, Japan). The in vitro inhibitory activities of CpdB and CpdA against MGAT2 and related acyltransferases (DGAT1, DGAT2, and ACAT1) were evaluated as described in our previous report 17 and patent application 19. Liraglutide (Victoza) was purchased from Novo Nordisk Pharma Ltd. (Bagsvaerd, Denmark). All other chemicals were of analytical grade and purchased from Wako Pure Chemicals (Osaka, Japan).

Another experiment concerns the target T1, DGAT1 human (Homo sapiens, UniProt O75907).
T1 sequence (O75907 1-488): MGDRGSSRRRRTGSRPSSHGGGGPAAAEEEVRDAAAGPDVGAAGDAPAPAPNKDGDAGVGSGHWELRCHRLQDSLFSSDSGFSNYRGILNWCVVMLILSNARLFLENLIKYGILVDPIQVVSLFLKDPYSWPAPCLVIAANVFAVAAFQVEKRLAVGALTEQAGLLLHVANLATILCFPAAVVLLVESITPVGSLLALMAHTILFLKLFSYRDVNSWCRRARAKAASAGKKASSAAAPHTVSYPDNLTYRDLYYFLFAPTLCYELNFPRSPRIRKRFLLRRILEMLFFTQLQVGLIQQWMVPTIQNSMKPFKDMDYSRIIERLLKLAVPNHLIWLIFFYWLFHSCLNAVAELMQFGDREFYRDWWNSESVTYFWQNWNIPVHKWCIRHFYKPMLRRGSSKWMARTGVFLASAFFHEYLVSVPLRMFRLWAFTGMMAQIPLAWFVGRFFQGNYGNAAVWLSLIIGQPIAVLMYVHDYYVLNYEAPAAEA
Put plainly: in vitro inhibitory activity against DGAT1. The experiment is classed as biochemical. As to the method: as §1

Another experiment deals with T2, DGAT2 human (Homo sapiens, UniProt Q96PD7).
T2 sequence (Q96PD7 1-388): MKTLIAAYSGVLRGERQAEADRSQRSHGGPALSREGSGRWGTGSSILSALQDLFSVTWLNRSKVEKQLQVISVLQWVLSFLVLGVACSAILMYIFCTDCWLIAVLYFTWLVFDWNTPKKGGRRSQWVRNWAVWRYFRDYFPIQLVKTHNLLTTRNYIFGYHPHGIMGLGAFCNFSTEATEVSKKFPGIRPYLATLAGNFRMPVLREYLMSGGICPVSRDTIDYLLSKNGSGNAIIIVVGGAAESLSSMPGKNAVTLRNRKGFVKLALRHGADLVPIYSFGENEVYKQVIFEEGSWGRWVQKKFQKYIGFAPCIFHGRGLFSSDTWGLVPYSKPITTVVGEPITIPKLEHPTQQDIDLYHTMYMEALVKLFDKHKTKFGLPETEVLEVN
Briefly: in vitro inhibitory activity against DGAT2. The experiment is classed as biochemical. As to the method: as §1

In a further experiment the target is T3, ACAT1 human (Homo sapiens, UniProt P35610).
T3 sequence (P35610 1-550): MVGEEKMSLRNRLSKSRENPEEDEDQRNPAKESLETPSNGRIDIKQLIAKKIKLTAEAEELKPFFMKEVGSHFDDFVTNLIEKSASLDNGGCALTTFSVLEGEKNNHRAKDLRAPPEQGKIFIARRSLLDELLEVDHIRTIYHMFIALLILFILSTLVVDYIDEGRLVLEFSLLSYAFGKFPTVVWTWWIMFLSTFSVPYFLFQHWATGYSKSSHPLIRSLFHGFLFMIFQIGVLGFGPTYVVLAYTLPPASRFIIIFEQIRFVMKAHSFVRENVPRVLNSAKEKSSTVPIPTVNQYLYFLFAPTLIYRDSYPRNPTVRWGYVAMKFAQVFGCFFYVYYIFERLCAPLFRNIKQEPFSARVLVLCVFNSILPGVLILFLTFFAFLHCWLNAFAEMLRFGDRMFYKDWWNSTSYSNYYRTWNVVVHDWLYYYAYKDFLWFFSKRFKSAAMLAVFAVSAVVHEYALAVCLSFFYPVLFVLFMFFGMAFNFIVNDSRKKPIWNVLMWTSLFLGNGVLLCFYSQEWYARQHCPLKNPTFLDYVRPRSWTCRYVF
Briefly: in vitro inhibitory activity against ACAT1. The experiment is classed as biochemical. As to the method:
as §1

The test system of a further experiment is C57BL/6J mice. Briefly: Fat-induced gut peptide release and plasma TG after meal or oil load. The experiment is classed as in vivo, mouse. Conditions: for Plasma total GLP-1 at 3 h, AVE / ΔPlasma total PYY AUC (0-2 h), AVE / Plasma total GLP-1 at 3 h, individual animal / ΔPlasma total PYY AUC (0-2 h), individual animal: CpdB 10 mg/kg oral; for Plasma total GLP-1 at 3 h, AVE / ΔPlasma total PYY AUC (0-2 h), AVE / Plasma TG at 2 h after oil load, AVE: mean, N=5; for Plasma total GLP-1 at 3 h, individual animal / ΔPlasma total PYY AUC (0-2 h), individual animal / Plasma TG at 2 h after oil load, individual animal: single animal values. As for the experimental part: CpdB was suspended in 0.5% methylcellulose. Thirty minutes after administration, fat was loaded via oral gavage of either olive oil (8 mL·kg^−1) or liquid meal as described above (10 mL·kg^−1). Blood samples were collected precompound administration (defined as 0 h) and 1, 2, and 3 h after fat loading. Plasma levels of peptide tyrosine–tyrosine (PYY) and GLP‐1 were measured. To confirm the in vivo efficacy of CpdB, plasma TG levels were measured 2 h after olive oil loading. Mice orally loaded with water (8 mL·kg^−1) following vehicle administration were prepared as the control group.
Blood samples were collected from the tail or facial vein without anesthesia and centrifuged at 1500 g for 10 min at 4 °C to isolate the plasma. To prevent degradation of incretin hormone, blood samples were treated with not only heparin/aprotinin but also a dipeptidyl peptidase‐4 (DPP‐4) inhibitor. Plasma alanine aminotransferase […] levels were measured by an Autoanalyzer 7180 (Hitachi High‐Technologies Corporation, Tokyo, Japan). GHb was measured with an automated GHb analyzer (HLC‐723G8; Tosoh, Tokyo, Japan). Plasma insulin was measured with an ELISA kit (Shibayagi Co., Ltd., Gunma, Japan). Plasma levels of total GLP‐1 and total PYY were also measured with an ELISA kit (Wako Pure Chemicals).

Where “and” joins values, the source holds several entries; their conditions need not be identical. Equal entries are not always repeated.

Chain of human MGAT2 (Q3SYC2 whole entry): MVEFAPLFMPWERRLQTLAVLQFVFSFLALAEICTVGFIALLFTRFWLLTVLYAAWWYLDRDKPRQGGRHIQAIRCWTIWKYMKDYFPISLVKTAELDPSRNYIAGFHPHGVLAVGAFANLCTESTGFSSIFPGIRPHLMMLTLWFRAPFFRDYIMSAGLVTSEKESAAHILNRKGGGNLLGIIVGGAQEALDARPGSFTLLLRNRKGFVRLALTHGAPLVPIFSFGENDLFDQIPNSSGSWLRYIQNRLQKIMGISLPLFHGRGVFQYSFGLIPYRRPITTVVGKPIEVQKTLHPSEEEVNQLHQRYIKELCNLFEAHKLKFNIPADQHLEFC

As to `CC(C)(OC(=O)N[C@H]1CC[C@H](OC(=O)N2CCc3cc(S(=O)(=O)Nc4c(F)cc(Cl)cc4F)cc(N4CCCC4=O)c32)CC1)C(F)(F)F` [CpdB], on human MGAT2 (MGAT2 vs DGAT1, DGAT2, ACAT1), the “selectivity against related acyltransferases (DGAT1, DGAT2, and ACAT1)” value is “greater than 300 fold”. The IC50 is 0.0081 µM at human MGAT2 (human MGAT2), 2.5 µM against DGAT1 human, more than 30 µM against DGAT2 human and more than 30 µM against ACAT1 human. Besides, the figures for the “Plasma total GLP-1 at 3 h, AVE” value in the experiment with C57BL/6J mice (liquid meal load) and in the experiment with C57BL/6J mice (oil load) were 1.78 pM and 17.63 pM, respectively. The “ΔPlasma total PYY AUC (0-2 h), AVE” value in the experiment with C57BL/6J mice (liquid meal load) worked out at 6.19 pMxh; with C57BL/6J mice (oil load) it was 68.45 pMxh. Also, the “Plasma total GLP-1 at 3 h, individual animal” value is 4.08 pM and 1.57 pM and 0.30 pM and 2.65 pM in the experiment on C57BL/6J mice (liquid meal load); 14.07 pM and 19.72 pM and 15.79 pM and 16.41 pM and 22.18 pM in the experiment with C57BL/6J mice (oil load). Besides, the “ΔPlasma total PYY AUC (0-2 h), individual animal” value was 7.70 pMxh and -9.56 pMxh and 10.56 pMxh and 11.27 pMxh and 10.99 pMxh in the experiment with C57BL/6J mice (liquid meal load); 83.34 pMxh and 44.80 pMxh and 90.28 pMxh and 47.69 pMxh and 76.14 pMxh with C57BL/6J mice (oil load). Further, the “Plasma TG at 2 h after oil load, AVE” value in the experiment with C57BL/6J mice (oil load, 10 mg/kg oral) is 242.5 mg/dL; in the experiment with C57BL/6J mice (oil load, 30 mg/kg oral), 219.8 mg/dL. Moreover, the “Plasma TG at 2 h after oil load, individual animal” value in the experiment on C57BL/6J mice (oil load, 10 mg/kg oral, 10 mg/kg) was 165.0 mg/dL and 186.0 mg/dL and 337.8 mg/dL and 259.8 mg/dL and 264.0 mg/dL; with C57BL/6J mice (oil load, 30 mg/kg oral, 30 mg/kg), 261.0 mg/dL and 281.4 mg/dL and 164.4 mg/dL and 231.0 mg/dL and 161.4 mg/dL.
